Assay results as given in publication PMC6290340, “Discovery of Antiamebic Compounds That Inhibit Cysteine Synthase From the Enteric Parasitic Protist Entamoeba histolytica by Screening of Microbial Secondary Metabolites” (Frontiers in Cellular and Infection Microbiology, 2018).
Like-named read-outs stand apart in the source and are kept apart here.

What was measured:
[1] = tested on: E. histolytica trophozoites; test: In vitro antiamebic activity (WST-1), L-cysteine-deprived or L-cysteine-supplemented BI-S-33 medium; assay type: cell-based, Entamoeba histolytica; conditions: for Anti-amebic activity Selectivity Cys(+)/Cys(–): ED50 Cys(+)/ED50 Cys(–), cysteine dependence index; for Anti-amebic activity ED50 Cys (+): L-cysteine (9 mM) supplemented BI-S-33 medium; for Anti-amebic activity ED50 Cys (+) / Anti-amebic activity ED50 Cys (–): 48 hrs; for Anti-amebic activity ED50 Cys (–): L-cysteine-deprived BI-S-33 medium; for IC50: Entamoeba histolytica
Protocol: Trophozoites were harvested in a logarithmic growth phase 3 or 4 days after inoculation of 1/30–1/12 volume of the seed culture. After the cultures were chilled on ice for 5 min, trophozoites were collected by centrifugation at 500 × g for 10 min at 4°C. The trophozoites were resuspended in BI-S-33 medium containing 1% (v/v) penicillin/streptomycin (Life Technologies, Grand Islands, NY, U.S.A.), with a final concentration of 5 × 10^4 cells/ml. […] The plates were incubated under anaerobic conditions with Anaeropak for 48 hrs. After incubation, the medium was removed and 90 μl of pre-warmed Opti-MEM I (Life Technologies) and 10 μl of WST-1 solution (Dojindo, Kumamoto, Japan) were added to each well. Optical absorbance at 450 nm was measured on a photospectrometer (SH-9000Lab, Corona Electric, Ibaraki, Japan). Metronidazole (Sigma-Aldrich, MO, USA) was used as positive control. Antiamebic assays were done in triplicate. […] The cysteine dependence of the antiamebic activities was calculated as ED 50Cys(+) /ED 50Cys(-) and expressed as “cysteine dependence index.”
Approximately 2 μl of the compound solution (1 mg/ml, in DMSO) of the Kitasato Natural Products Library or 10 μl of EtOH extracts of microbial culture broth extracts was added to each well of E. histolytica trophozoite-seeded 96-well microtiter plates (final concentrations, 10 μg/ml). Compounds showing more than 80% growth inhibition and having no cytotoxicity against MRC-5 cells were selected for further evaluation.

[2] = target: E. histolytica CS3 (Entamoeba histolytica, UniProt Q401L7); test: CS inhibitory activity, recombinant CS3; assay type: biochemical
Sequence of E. histolytica CS3 (Q401L7 entry or part of it): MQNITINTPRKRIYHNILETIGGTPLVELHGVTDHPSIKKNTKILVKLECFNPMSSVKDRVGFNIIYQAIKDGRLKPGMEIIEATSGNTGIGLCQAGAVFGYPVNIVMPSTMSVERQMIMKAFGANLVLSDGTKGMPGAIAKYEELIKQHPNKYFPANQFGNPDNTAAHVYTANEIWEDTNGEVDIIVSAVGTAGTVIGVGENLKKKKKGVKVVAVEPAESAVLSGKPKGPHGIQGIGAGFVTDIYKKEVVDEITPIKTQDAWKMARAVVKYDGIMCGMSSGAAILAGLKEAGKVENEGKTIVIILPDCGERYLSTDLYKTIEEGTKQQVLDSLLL

[3] = target: E. histolytica CS1 (Entamoeba histolytica, UniProt O15570); test: CS inhibitory activity, recombinant CS1; assay type: biochemical
Sequence of E. histolytica CS1 (O15570 entry or part of it): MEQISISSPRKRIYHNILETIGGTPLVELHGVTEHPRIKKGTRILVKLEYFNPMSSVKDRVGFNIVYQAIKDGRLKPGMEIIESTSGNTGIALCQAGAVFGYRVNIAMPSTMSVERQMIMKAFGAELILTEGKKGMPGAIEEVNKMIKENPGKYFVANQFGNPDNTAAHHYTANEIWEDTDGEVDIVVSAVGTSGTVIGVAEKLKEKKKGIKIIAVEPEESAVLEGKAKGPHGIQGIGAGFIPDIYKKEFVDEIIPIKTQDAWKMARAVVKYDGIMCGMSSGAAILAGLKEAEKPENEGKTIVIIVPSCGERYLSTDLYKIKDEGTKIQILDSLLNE
Protocol: Pencolide (5.5 mg) was dissolved in 1 ml of 0.25 M L-cysteine aqueous solution (L-cysteine HCl salt in H2O) and left at room temperature for overnight. The reaction mixture was purified by Seppak ODS (Waters co., Massachusetts, USA) and the cysteine adducts were eluted with 30%MeCN-70%H2O containing 0.1%TFA. The obtained fraction was further purified by preparative HPLC (column, Senshupak Pegasil ODS SP100, 20 φ × 250 mm, Senshu Scientific Co. Ltd.; solvent, 0.1%TFA-MeCN-H2O gradient system, 10–50% MeCN per 0–30 min; flow rate, 7.0 ml/min; detection, UV at 210 nm). […] The methanol solution of the obtained adducts was used for measurement of the CS1 inhibitory activity.

[4] = assay type: physicochemical; conditions: 9 mM L-cysteine, 37°C, 2 days
Protocol: After mixing well with plate mixer for 3 min, the plate was incubated at 37°C axenically with Anaeropak (Mitsubishi Chemical, Tokyo, Japan) for 2 days. The reaction mixtures were evaluated by HPLC analysis (column, Senshupak Pegasil ODS SP100, 4.6 φ × 250 mm, Senshu Scientific Co. Ltd., Japan; solvent, MeCN-H2O gradient system, 10–90% MeCN per 0–30 min; flow rate, 1.0 ml/min; detection, UV at 210 nm) and LC-ESI-MS analysis (column, Capcellcore C18, 2.1 φ × 50 mm, Osaka soda, Japan; solvent, MeCN-H2O-0.1% HCO2H gradient system, 5–100% MeCN per 0–8 min, 100%MeCN per 8–10 min; flow rate, 0.4 ml/min; ESI-MS data was obtained by JEOL JMS-T100LP, JEOL, Japan).

[5] = tested on: EhCSs; test: EhCS inhibition, isotype not separated (both CSs / EhCS); assay type: biochemical, Entamoeba histolytica; conditions: cytochalasans and cerulenin at 100 μg/ml
From the text: Expression and purification of recombinant E. histolytica CS1 and CS3, and measurement of inhibitory activity against both enzymes were described previously (Mori et al., [2015]).

[6] = tested on: E. histolytica trophozoites; test: In vitro antiamebic activity (WST-1), L-cysteine-deprived or L-cysteine-supplemented BI-S-33 medium; assay type: cell-based, Entamoeba histolytica; conditions: Cys (–) medium, 2.5 mM pencolide
[7] = tested on: MRC-5 cells; test: Cytotoxicity against MRC-5 cells (WST-8); assay type: cell-based, Human; conditions: MRC-5 relative to E. histolytica in Cys (–)
Protocol: (§1) Human fibroblast cell line, MRC-5, was used for cytotoxicity evaluation. MRC-5 cells were plated on 96-well flat bottom plates at a density of 1.5 × 10^4 cells/well in 100 μl of MEM medium each well (Life Technologies) containing 10% fetal bovine serum (Hana-nesco Bio, Tokyo, Japan) and 1% penicillin-streptomycin (Life Technologies) and incubated at 37°C with 5% CO2 for 2 days. Test compounds in 5 μl of 50% DMSO and 50% H2O and 100 μl of MEM medium were mixed and added to each well. After cultivation at 37°C with 5% CO2 for 2 days, cell density and morphological changes were observed under a microscope. After observation, 10 μl of WST-8 solution (Dojindo) was added to the cells and the plate was incubated at 37°C with 5% CO2 for 2 h. Then, absorbance at 450 nm was measured as above. Cytotoxicity against MRC-5 cells was measured in triplicate. ED50 values were calculated as previously described (Arita-Morioka et al., [2015]).

[8] = Cytotoxicity against MRC-5 cells (WST-8); assay type: cell-based, Human; conditions: human, MRC-5 fibroblast cells; 2 days
Protocol: as §1

[9] = tested on: E. histolytica trophozoites; parameters: method as in Mori et al., 2015; conditions: ref Mori et al., 2015, cited from earlier work
[10] = tested on: MRC-5 cells; parameters: method as in Mori et al., 2015; conditions: strong cytotoxicity, times higher, ref Mori et al., 2015; cited from earlier work
[11] = tested on: EhCSs; parameters: method as in Mori et al., 2015; conditions: previous enzymatic screening, ref Mori et al., 2015; read-out: IC50 value against CSs; cited from earlier work
[12] = read-out: CS inhibitory activity IC50 CS3 (converted)
[13] = read-out: CS inhibitory activity IC50 CS1 (converted)

Compound	Anti-amebic activity Selectivity Cys(+)/Cys(–) [1]	Anti-amebic activity ED50 Cys (+) [1] [µg/mL]	Anti-amebic activity ED50 Cys (–) [1] [µg/mL]	IC50 [2] [µM]	IC50 [3] [µM]	Stability in cysteine-supplemented water (HPLC) [4]	other results
CC1=CC2C=C(C)C(C)C3C(CC(C)C)NC(=O)C23C(=O)C=CC(=O)C(O)CC1 (stereo not shown) [Aspochalasin B]	3	27	9.6	> 250	> 250		
C/C=C/C/C=C/CCC(=O)[C@H]1O[C@H]1C(N)=O [Cerulenin, reference compound]		8.2	1.1	> 448	> 448	relatively stable	Inhibitory activity toward both CS1 and CS3 (in words) [5]: neither three cytochalasans nor cerulenin showed the inhibitory activity
C/C1=C\[C@@H](C)C/C=C/[C@H]2[C@@H]3O[C@]3(C)[C@@H](C)[C@H]3[C@H](Cc4c[nH]c5ccccc45)NC(=O)[C@]32C(=O)/C=C/C(=O)[C@@H]1O [Chaetoglobosin A]	>50	>50	1.0	> 189	> 189	totally lost	
CCC[C@H]1O[C@H](CC(=O)O)CC2=C1C(=O)c1c(O)cccc1C2=O [Deoxyfrenolicin]	2	3.9	1.7				IC50 [2, 12]: 75.7 µM; IC50 [3, 13]: 72.7 µM; Inhibitory activity toward both CS1 and CS3 (in words) [5]: mild inhibition
C/C=C(\C(=O)O)N1C(=O)C=C(C)C1=O [Pencolide]						most of pencolide was changed to the cysteine adducts	Selectivity Cys (+)/Cys (–) (cysteine dependence index) [1]: 7.6; IC50 ([1]; Cys (+) medium, read-out: Cytotoxicity IC50 Against Entamoeba histolytica in Cys (+)): 2140 µM; IC50 ([1]; Cys (–) medium, read-out: Cytotoxicity IC50 Against Entamoeba histolytica in Cys (–)): 283 ± 44 µM; IC50 [2, 12]: 217 ± 25 µM; IC50 [3, 13]: 233 ± 19 µM; Cell morphology under a light microscope [6]: apoptosis-like cell death; Selectivity MRC-5/Cys (–) (selectivity index) [7]: 6.7; IC50 at 2 days [8]: 1900 µM
CC1=CC(C)CC=CC2C3OC3(C)C(C)C3C(Cc4c[nH]c5ccccc45)NC(=O)C23C(=O)C=CC(=O)C1 (stereo not shown) [Prochaetoglobosin III]	17	44	2.6	> 195	> 195	totally lost	
CCCCCCCCCc1cc(OC(=O)c2c(CCCCCCCCC)cc(O)cc2OC2OC(CO)C(O)C(O)C2O)cc(O)c1C(=O)O (stereo not shown) [exophillic acid]							Antiamebic activity in vitro [9]: did not show the antiamebic activity
CC(=O)c1c(C)c(/C(O)=C2\COc3cc(O)c(O)c(C(=O)O)c3C2=O)cc2c(=O)c3c(C(=O)O)c(O)c(O)cc3oc12 [xanthofulvin]							Antiamebic activity in vitro [9]: did not show the antiamebic activity
deacetylkinamycin C							Cytotoxicity against MRC-5 cells relative to antiamebic/CS activity [10]: > 10 times; IC50 [11]: ~20 µM; ED50 value against amebic trophozoites ([9]; previous study): ca. 20 μM
